What was measured:
[1] = target: Receptor-type tyrosine-protein kinase FLT3 (Homo sapiens) (UniProt P36888); assay: Selectivity interaction (KinomeScan (DiscoverX)) EUB0000229b FLT3; details: at 10 µM
[2] = target: T1, Serine/threonine-protein kinase D2 (Homo sapiens) (UniProt Q9BZL6); assay: Selectivity interaction (Kinase panel (KiNativ target engagement assay in Jurkat cells)) EUB0001635a PRKD2; assay type: cell-based; details: at 1 µM
T1 sequence (whole entry): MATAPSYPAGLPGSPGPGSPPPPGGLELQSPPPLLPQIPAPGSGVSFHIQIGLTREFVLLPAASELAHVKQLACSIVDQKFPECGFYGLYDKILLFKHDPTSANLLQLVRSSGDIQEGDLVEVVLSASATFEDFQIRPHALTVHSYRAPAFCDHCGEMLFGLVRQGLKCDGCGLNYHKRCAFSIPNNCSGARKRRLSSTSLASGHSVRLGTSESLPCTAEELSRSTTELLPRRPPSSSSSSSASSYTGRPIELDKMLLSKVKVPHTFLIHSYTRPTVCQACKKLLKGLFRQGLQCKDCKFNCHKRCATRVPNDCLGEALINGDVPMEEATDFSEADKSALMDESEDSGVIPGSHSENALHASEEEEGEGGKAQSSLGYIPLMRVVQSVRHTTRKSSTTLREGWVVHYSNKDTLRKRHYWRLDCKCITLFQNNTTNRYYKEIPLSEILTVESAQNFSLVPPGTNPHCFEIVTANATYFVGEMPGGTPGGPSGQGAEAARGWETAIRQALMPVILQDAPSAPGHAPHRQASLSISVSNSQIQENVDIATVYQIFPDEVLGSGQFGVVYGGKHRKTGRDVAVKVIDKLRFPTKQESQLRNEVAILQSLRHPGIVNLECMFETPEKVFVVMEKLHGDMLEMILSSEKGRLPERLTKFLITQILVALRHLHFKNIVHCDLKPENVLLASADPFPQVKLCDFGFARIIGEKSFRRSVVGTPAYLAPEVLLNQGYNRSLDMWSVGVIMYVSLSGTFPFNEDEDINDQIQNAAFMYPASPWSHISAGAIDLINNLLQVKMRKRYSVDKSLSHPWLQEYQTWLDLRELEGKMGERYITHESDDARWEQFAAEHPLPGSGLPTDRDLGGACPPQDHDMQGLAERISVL

[3] = target: T2, Mitogen-activated protein kinase kinase kinase kinase 2 (Homo sapiens) (UniProt Q12851); assay: Selectivity interaction (Kinase panel (KiNativ target engagement assay in Jurkat cells)) EUB0001635a MAP4K2; assay type: cell-based; details: Selectivity number of off-targets 0.0, Selectivity number of targets 233.0, Source Knowledge https://www.sciencedirect.com/science/article/pii/S2451945619300674?via%3Dihub, at 1 µM
T2 sequence (whole entry): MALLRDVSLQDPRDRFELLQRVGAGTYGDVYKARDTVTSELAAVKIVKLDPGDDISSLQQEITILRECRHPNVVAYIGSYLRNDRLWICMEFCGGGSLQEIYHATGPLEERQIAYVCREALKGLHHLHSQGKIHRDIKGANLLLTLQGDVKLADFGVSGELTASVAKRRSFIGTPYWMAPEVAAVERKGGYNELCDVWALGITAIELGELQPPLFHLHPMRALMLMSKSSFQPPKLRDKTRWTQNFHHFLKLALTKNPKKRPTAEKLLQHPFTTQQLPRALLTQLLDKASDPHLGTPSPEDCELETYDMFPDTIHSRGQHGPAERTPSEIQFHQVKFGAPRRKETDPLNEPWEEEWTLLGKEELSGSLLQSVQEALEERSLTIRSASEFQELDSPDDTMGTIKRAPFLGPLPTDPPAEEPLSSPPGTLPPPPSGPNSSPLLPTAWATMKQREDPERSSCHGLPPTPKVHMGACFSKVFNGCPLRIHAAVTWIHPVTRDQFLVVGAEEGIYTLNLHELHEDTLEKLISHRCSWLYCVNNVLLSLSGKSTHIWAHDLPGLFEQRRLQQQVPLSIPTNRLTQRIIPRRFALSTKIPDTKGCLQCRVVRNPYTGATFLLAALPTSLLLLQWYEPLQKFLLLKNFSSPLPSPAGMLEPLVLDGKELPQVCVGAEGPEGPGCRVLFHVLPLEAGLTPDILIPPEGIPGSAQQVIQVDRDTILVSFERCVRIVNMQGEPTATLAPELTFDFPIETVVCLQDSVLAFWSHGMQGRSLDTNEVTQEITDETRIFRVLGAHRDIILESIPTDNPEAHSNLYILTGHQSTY

[4] = target: Tyrosine-protein kinase Fes/Fps (Homo sapiens) (UniProt P07332); assay: Selectivity interaction (Kinase panel (DSF assay)) EUB0001559a FES
Tyrosine-protein kinase Fes/Fps (Homo sapiens), sequence (P07332 whole entry): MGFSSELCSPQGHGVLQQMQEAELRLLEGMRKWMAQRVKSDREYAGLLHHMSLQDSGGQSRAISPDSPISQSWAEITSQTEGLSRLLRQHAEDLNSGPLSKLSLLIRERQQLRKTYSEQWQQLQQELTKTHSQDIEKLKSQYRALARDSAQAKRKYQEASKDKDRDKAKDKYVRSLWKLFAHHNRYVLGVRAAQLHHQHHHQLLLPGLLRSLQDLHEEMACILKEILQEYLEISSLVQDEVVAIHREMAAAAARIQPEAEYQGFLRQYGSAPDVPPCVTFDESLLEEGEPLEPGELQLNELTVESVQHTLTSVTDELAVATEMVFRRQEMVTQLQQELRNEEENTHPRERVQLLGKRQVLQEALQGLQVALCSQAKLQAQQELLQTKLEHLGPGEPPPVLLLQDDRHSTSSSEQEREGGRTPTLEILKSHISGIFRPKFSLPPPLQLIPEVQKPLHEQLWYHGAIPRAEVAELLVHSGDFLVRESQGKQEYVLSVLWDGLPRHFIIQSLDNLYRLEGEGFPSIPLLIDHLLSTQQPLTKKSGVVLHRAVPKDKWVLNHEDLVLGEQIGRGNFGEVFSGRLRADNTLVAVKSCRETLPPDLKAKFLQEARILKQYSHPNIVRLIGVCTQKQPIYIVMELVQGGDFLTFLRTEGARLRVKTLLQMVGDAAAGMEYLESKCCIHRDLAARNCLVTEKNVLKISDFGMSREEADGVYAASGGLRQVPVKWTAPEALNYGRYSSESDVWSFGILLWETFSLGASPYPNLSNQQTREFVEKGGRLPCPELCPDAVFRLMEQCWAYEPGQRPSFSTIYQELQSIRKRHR

[5] = target: Calcium/calmodulin-dependent protein kinase kinase 2 (Homo sapiens) (UniProt Q96RR4); assay: Selectivity interaction (ActivX KiNativ screen (kinase selectivity in THP-1 cell lysates)) EUB0000639a CAMKK2; assay type: subcellular; details: lysate, at 0.01 µM
Calcium/calmodulin-dependent protein kinase kinase 2 (Homo sapiens), sequence (Q96RR4 2-588 limits assumed): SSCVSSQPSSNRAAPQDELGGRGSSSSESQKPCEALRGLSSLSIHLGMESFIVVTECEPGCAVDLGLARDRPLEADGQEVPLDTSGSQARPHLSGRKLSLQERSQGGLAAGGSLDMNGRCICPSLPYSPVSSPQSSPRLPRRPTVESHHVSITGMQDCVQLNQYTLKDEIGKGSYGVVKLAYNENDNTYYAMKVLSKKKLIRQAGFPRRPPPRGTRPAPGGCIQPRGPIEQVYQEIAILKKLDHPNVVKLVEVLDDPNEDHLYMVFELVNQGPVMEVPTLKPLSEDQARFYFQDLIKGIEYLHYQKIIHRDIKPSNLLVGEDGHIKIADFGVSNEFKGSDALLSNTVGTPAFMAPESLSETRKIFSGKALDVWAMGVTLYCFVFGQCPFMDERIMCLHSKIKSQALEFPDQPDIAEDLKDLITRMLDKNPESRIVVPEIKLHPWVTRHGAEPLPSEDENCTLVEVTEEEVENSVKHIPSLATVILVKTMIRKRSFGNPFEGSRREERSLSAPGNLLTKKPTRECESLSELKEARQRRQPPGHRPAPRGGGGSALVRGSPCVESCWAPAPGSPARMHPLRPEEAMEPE

[6] = target: Serine/threonine-protein kinase PAK 2 (Homo sapiens) (UniProt Q13177); assay: Selectivity interaction (Upstate Kinase Profiler service (Millipore)) EUB0000056c PAK2; details: at 1 µM
Serine/threonine-protein kinase PAK 2 (Homo sapiens), sequence (Q13177 whole entry): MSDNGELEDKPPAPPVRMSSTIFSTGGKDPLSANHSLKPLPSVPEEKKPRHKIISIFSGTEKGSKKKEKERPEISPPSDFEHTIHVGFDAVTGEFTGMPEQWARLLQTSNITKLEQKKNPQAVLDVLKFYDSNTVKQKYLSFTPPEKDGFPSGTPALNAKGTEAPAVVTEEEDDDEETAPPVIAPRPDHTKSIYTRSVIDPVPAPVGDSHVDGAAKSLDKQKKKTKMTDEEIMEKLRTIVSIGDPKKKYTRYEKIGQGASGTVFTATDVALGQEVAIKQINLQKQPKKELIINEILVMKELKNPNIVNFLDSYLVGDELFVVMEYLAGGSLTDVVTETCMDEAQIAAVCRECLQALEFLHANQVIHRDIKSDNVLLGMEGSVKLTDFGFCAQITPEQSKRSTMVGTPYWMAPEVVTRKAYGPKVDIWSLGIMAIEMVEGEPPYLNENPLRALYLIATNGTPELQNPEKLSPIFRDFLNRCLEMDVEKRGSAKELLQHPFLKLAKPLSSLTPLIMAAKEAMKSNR

[7] = target: T3, MAP/microtubule affinity-regulating kinase 4 (Homo sapiens) (UniProt Q96L34); assay: Selectivity interaction (ProQinase) EUB0000171b MARK4
T3 sequence (whole entry): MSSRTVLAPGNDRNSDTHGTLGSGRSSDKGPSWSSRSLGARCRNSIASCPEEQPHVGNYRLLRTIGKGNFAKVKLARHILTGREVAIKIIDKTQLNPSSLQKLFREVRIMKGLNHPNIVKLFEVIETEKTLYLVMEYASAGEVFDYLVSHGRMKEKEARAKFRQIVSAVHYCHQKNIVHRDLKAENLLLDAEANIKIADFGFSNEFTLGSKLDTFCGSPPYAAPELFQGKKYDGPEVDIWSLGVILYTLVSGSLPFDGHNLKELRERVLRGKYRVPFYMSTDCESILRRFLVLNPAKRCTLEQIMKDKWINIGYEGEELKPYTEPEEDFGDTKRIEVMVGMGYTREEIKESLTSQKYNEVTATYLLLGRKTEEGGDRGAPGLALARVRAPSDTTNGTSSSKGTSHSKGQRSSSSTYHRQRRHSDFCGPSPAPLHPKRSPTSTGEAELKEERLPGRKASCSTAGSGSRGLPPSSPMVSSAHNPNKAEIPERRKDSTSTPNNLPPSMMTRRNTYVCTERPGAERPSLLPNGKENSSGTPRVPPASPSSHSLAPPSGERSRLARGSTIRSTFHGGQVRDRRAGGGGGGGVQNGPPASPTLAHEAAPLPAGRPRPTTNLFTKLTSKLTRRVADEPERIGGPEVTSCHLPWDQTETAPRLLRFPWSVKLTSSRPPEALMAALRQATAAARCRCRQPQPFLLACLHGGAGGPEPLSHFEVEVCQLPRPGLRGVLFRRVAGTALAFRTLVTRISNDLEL

Receptor-type tyrosine-protein kinase FLT3 (Homo sapiens), sequence (P36888 whole entry): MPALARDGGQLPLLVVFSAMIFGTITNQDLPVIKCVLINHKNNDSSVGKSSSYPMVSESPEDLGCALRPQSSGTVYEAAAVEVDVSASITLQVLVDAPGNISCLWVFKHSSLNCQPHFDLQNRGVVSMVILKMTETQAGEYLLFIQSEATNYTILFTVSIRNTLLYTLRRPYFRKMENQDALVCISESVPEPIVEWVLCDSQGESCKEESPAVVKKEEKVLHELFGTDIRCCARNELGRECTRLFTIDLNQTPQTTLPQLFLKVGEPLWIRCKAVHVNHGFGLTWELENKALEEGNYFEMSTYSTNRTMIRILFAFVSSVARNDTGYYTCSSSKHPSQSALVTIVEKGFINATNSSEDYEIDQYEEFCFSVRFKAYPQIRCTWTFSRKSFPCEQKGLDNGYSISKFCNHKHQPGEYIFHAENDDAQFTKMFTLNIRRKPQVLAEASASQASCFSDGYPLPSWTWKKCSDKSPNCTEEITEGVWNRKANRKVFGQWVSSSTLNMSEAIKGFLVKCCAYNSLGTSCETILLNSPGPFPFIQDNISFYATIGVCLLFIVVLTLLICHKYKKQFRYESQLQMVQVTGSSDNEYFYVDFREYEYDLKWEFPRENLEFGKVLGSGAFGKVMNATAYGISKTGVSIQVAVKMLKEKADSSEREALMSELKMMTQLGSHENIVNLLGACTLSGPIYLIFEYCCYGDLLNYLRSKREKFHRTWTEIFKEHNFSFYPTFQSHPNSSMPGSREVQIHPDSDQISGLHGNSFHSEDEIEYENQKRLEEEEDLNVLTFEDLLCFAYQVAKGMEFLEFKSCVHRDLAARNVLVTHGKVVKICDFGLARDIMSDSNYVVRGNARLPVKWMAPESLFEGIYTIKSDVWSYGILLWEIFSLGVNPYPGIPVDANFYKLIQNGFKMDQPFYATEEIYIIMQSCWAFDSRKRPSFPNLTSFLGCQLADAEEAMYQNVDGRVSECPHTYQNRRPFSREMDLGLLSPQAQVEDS

Work on `COc1cc(N(C)c2ccnc3ccc(C(F)(F)F)cc23)cc(OC)c1OC` yielded a % binding [1] of 85%.

`C=CC(=O)Nc1ccc(C(=O)Nc2[nH]nc3c2CN(C(=O)N[C@H](CN(C)C)c2ccccc2)C3(C)C)cc1` was tested, and the % of engagement [2] was -4.9% and the % of engagement [3] was -6.1%.

`CN(C(=O)c1cnn2cccnc12)c1cc2c(cc1N1CCOCC1)C(=O)N(C[C@@H](F)C(C)(C)O)C2` was tested, and the dTM [4] was -0.6 K.

Work on `CC[C@@H]1[C@H](F)C(=O)N[C@@H]1COc1nccc2cc(C(N)=O)c(OC)cc12` [ZIMLOVISERTIB] yielded a % of inhibition [5] of -0.8%.

Molecule `Cc1ccc(-c2ccc3c(ccc4sc5c(c43)NC[C@@H](C)NC5=O)n2)cn1` has a % of inhibition [6] of 37%.

Work on `C=CC(=O)Nc1cccc(C(=O)Nc2ccc(Nc3cc(-c4[nH]c(SC)nc4C)ccn3)cc2)c1` yielded a % of control ([7]; at 1 µM) of 92% and a % of control ([7]; at 5 µM) of 99%.
